Source: US6613883B1, “Screening assays for compounds that cause apoptosis and related compounds” (The United States of America as represented by the …, priority 1994, dated 2003)
Entries after “also recorded” stand apart in the source; their conditions may differ.

What was measured:
[1] = tested on: XPB binding to mutant p53; test: Peptide inhibition of XPB binding to mutant p53; parameters: species or system human; conditions: data not shown
Method: (§1) The helicase motif III in XPB and the C-terminal region of p53 are both important regions that are involved in the binding of p53 to XPB. […] Incubation conditions for the binding assays and analysis of binding was then carried out as described in Example 2 herein.

binding of p53 to XPB = molecular target: T1, binding of p53 to XPB (Homo sapiens, UniProt P04637); test: Competitive inhibition by peptides of XPB binding to GST-p53-WT; conditions: peptide preincubated with GST-p53-WT 30 min on ice, 12-596 nM
T1 construct: was used for in vitro translation of full length XPB protein; made in house; host or cells: GST-p53-WT: Escherichia coli; XPB: cell-free in vitro transcription/translation (Promega)
Method: FIG. 4. Peptides corresponding to helicase motif III of XPB and the C-terminus of p53 prevent XPB from binding to GST-p53. Four different synthetic peptides were preincubated with 2 μg GST-p53WT for 30 minutes on ice before the addition of ^35S-labeled, in vitro-translated XPB for 60 min at RT. Peptide #464 corresponds to residues 464-478 of XPB (lanes 2-4; 12, 120, and 596 nM), peptide #479 corresponds to residues 479-493 of XPB (lanes 5-7; 12, 116, and 578 nM), peptide #99 corresponds to residues 100-115 of HBX (lanes 8-9; 111 and 554 nM), and peptide #p53cp corresponds to residues 367-387 of p53 (lanes 11-12; 85 and 424 nM).
as §1

[2] = tested on: normal primary human fibroblasts (C5RO); test: Apoptosis after microinjection of p53 expression vectors; type: cell-based; conditions: for effect of coinjected mutant p53 on induction of apoptosis by wt p53: expression vectors for wt and mutant p53 coinjected into normal human fibroblasts; for % apoptotic cells: normal fibroblasts (C5RO), of p53 positive cells; for % apoptotic cells / p53 localization (% cells) both / p53 localization (% cells) cytoplasmic / p53 localization (% cells) nuclei: 24 hr after microinjection; for p53 localization (% cells) both / p53 localization (% cells) cytoplasmic / p53 localization (% cells) nuclei: normal fibroblasts
[3] = molecular target: T2, XPD helicase within BTF2-TFIIH (Homo sapiens, UniProt P18074); test: BTF2-TFIIH helicase assay, 5'→3' (XPD); type: biochemical; conditions: 6, 18, 120 ng wild-type p53 or 7, 21, 140 ng p53-273H
T2 construct: XPD and XPB helicase activity within the native BTF2-TFIIH complex; endogenous in cells; host or cells: HeLa cell nuclear extract (HAP fraction)

[4] = molecular target: T3, XPB helicase within BTF2-TFIIH (Homo sapiens, UniProt P19447); test: BTF2-TFIIH helicase assay, 3'→5' (XPB); type: biochemical; conditions: 6, 18, 120 ng wild-type p53 or 7, 21, 140 ng p53-273H
T3 construct: XPD and XPB helicase activity within the native BTF2-TFIIH complex; endogenous in cells; host or cells: HeLa cell nuclear extract (HAP fraction)

wild type p53 = molecular target: T4, wild type p53 (Homo sapiens, UniProt P04637); test: Binding of XPB proteins with deletion mutations to wild type p53; conditions: for binding of in vitro-translated XPB deletion mutant to GST-p53-WT: compared with wild-type XPB
T4 construct: made in house; host or cells: Escherichia coli
Method: FIGS. 3A, 3B and 3C. p53 binds to XPB helicase motifs Ia, II and III. […] Twenty percent of the original input was loaded in parallel as the references (lanes 1-3). B. In vitro-translated wild-type p53 protein was mixed with GSH-beads loaded with 4 μg of GST (lane 2), 2 μg of GST-XPB (WT) (lane 3), or 2 μg of GST-XPB (truncated XPB with 80-480 residues) (lane 4). Bound proteins were analyzed on SDS/PAGE. The original input (100%) was included as a reference (lane 1). C. Schematic representation of the full-length or the truncated XPB proteins used in binding assays. Black boxes in the bars are the putative helicase motifs conserved across the helicase superfamily. The small open bar from residues 354 to 496 covers the region which binds p53, with the closed bar in the right side covering motif III representing the higher affinity binding site. Helicase motif 1, residues 337-351; motif Ia, residues 361-374; motif II, residues 434-446; motif III, residues 462-480; motif IV, residues 576-592; motif V, residues 601-621; motif VI, residues 630-649.
The binding assays were done in 500 μl IP buffer (50 mM Tris-HCl, pH8.0/120 mM NaCl/0.5% Nonidet P-40) containing the ^35S-labeled, in vitro translated proteins and GST fusion proteins loaded on GSH-beads at RT for 60 min. After washing five times with IP buffer, the bound proteins were released by boiling the beads in Laemmli buffer for 5 min, separated by SDS-PAGE, and visualized by fluolorography, as described in Wang, X. W., et al. (1994) Proc. Natl. Acad. Sci., USA 91:2230-2234.
XPB contains 7 putative helicase motifs (FIG. 3C, black bars) which are conserved among the helicase superfamily and are indispensable for NER activity. […] The XPB mutants were produced a s described in Example 1, herein, and the binding studies with wild type p53 were carried out as described in Example 2, herein.

Peptide #464: amino acid residues 464 to 478 of XPB, helicase motif III region (LGLTATLVREDDKIV)
inhibition of XPB binding to mutant p53 [1]: did not inhibit
competition of in vitro-translated XPB from GST-p53 (binding of p53 to XPB; listed as #464): efficiently competed; also recorded: capable of inhibiting the binding

99: non relevant peptide from HBV, residues 100-115 of HBX [compound 99, reference compound]
competition of in vitro-translated XPB from GST-p53 (binding of p53 to XPB): failed to do so; also recorded: enhance binding

479: residues 479 to 493 of XPB (DLNFLIGPKLYEANW) [compound 479, reference compound]
competition of in vitro-translated XPB from GST-p53 (binding of p53 to XPB): failed to do so; also recorded: enhance binding

361 to 393: fragment of the c-terminus of wt p53, amino acid residues 361 to 393
induction of apoptosis by fragments of the c-terminus of wt p53 ([2]; cells and delivery not stated for the fragments): can also induce apoptosis

273^His: p53 mutated at codon 273 (Arg→His); expression vector or baculovirus-produced protein
inhibition of XPD helicase activity of BTF2-TFIIH [3]: No inhibition
effect of coinjected mutant p53 on induction of apoptosis by wt p53 [2]: completely abolished
% apoptotic cells [2]: 7(30) %
% apoptotic cells ([2]; listed as 273]^His): significantly reduced
p53 localization (% cells) both [2]: 73 % cells
p53 localization (% cells) cytoplasmic [2]: 0 % cells
p53 localization (% cells) nuclei [2]: 27 % cells
inhibition of XPB helicase activity of BTF2-TFIIH [4]: No inhibition

249^Ser: p53 mutant 249Ser, microinjected as CMV expression vector
effect of coinjected mutant p53 on induction of apoptosis by wt p53 [2]: completely abolished
% apoptotic cells [2]: 0(34) %
p53 localization (% cells) both [2]: 17 % cells
p53 localization (% cells) cytoplasmic [2]: 77 % cells
p53 localization (% cells) nuclei [2]: 6 % cells

Peptide #p53cp: amino acid residues 367-387 of human wild type p53 (SHLKSKKGQSTSRHKKLMFKT)
competition of in vitro-translated XPB from GST-p53 (binding of p53 to XPB): competed; also recorded: capable of inhibiting the binding

B1: ΔC496: XPB deletion mutant terminating at residue 496 (helicase motifs IV, V and VI deleted) (protein)
chain: MGKRDRADRDKKKSRKRHYEDEEDDEEDAPGNDPQEAVPSAAGKQVDESGTKVDEYGAKDYRLQMPLKDDHTSRPLWVAPDGHIFLEAFSPVYKYAQDFLVAIAEPVCRPTHVHEYKLTAYSLYAAVSVGLQTSDITEYLRKLSKTGVPDGIMQFIKLCTVSYGKVKLVLKHNRYFVESCHPDVIQHLLQDPVIRECRLRNSEGEATELITETFTSKSAISKTAESSGGPSTSRVTDPQGKSDIPMDLFDFYEQMDKDEEEEEETQTVSFEVKQEMIEELQKRCIHLEYPLLAEYDFRNDSVNPDINIDLKPTAVLRPYQEKSLRKMFGNGRARSGVIVLPCGAGKSLVGVTAACTVRKRCLVLGNSAVSVEQWKAQFKMWSTIDDSQICRFTSDAKDKPIGCSVAISTYSMLGHTTKRSWEAERVMEWLKTQEWGLMILDEVHTIPAKMFRRVLTIVQAHCKLGLTATLVREDDKIVDLNFLIGPKLYEANWMEL
binding of in vitro-translated XPB deletion mutant to GST-p53-WT (wild type p53): did not alter the binding

B2: GST-XPB-80/480: GST fused to amino acids 80 to 480 of XPB (protein, UniProt P19447 80-480, looked up, fragment)
chain: PDGHIFLEAFSPVYKYAQDFLVAIAEPVCRPTHVHEYKLTAYSLYAAVSVGLQTSDITEYLRKLSKTGVPDGIMQFIKLCTVSYGKVKLVLKHNRYFVESCHPDVIQHLLQDPVIRECRLRNSEGEATELITETFTSKSAISKTAESSGGPSTSRVTDPQGKSDIPMDLFDFYEQMDKDEEEEEETQTVSFEVKQEMIEELQKRCIHLEYPLLAEYDFRNDSVNPDINIDLKPTAVLRPYQEKSLRKMFGNGRARSGVIVLPCGAGKSLVGVTAACTVRKRCLVLGNSAVSVEQWKAQFKMWSTIDDSQICRFTSDAKDKPIGCSVAISTYSMLGHTTKRSWEAERVMEWLKTQEWGLMILDEVHTIPAKMFRRVLTIVQAHCKLGLTATLVREDDKIVDL
modifications: GST fusion
notes: GST fused to amino acids 80 to 480 of XPB
binding of in vitro-translated human wild-type p53 to GST-XPB protein (wild type p53; GSH-beads loaded with GST-XPB protein): significantly less binding

B3: ΔC354: XPB deletion mutant terminating at residue 354 (helicase motifs Ia to VI deleted) (protein)
chain: MGKRDRADRDKKKSRKRHYEDEEDDEEDAPGNDPQEAVPSAAGKQVDESGTKVDEYGAKDYRLQMPLKDDHTSRPLWVAPDGHIFLEAFSPVYKYAQDFLVAIAEPVCRPTHVHEYKLTAYSLYAAVSVGLQTSDITEYLRKLSKTGVPDGIMQFIKLCTVSYGKVKLVLKHNRYFVESCHPDVIQHLLQDPVIRECRLRNSEGEATELITETFTSKSAISKTAESSGGPSTSRVTDPQGKSDIPMDLFDFYEQMDKDEEEEEETQTVSFEVKQEMIEELQKRCIHLEYPLLAEYDFRNDSVNPDINIDLKPTAVLRPYQEKSLRKMFGNGRARSGVIVLPCGAGKSLVGVTAA
binding of in vitro-translated XPB deletion mutant to GST-p53-WT (wild type p53): completely abolished the binding
